Results from patent US12303497B2, “Anti-androgens for the treatment of metastatic castration-sensitive prostate cancer” (priority 2019, dated 2025).

Tested on: patients with metastatic castration-sensitive prostate cancer (mCSPC)

CNC(=O)c1ccc(N2C(=S)N(c3cnc(C#N)c(C(F)(F)F)c3)C(=O)C23CCC3)cc1F [Apalutamide, 4-[7-(6-cyano-5-trifluoromethylpyridin-3-yl)-8-oxo-6-thioxo-5,7-diazaspiro[3.4]oct-5-yl]-2-fluoro-N-methylbenzamide]
AE leading to dose interruption: Hyponatremia (All Grades): 1 (0.2) no. (%)
AE leading to dose interruption: Infections (All Grades): 6 (1.1) no. (%)
AE leading to dose interruption: Influenza-like illness (All Grades): 1 (0.2) no. (%)
AE leading to dose interruption: Insomnia (All Grades): 3 (0.6) no. (%)
AE leading to dose interruption: Ischemic cardiac events (All Grades): 1 (0.2) no. (%)
AE leading to dose interruption: Large intestinal ulcer perforation (All Grades): 1 (0.2) no. (%)
AE leading to dose interruption: Mental status changes (All Grades): 1 (0.2) no. (%)
AE leading to dose interruption: Muscular weakness (All Grades): 1 (0.2) no. (%)
AE leading to dose interruption: Musculoskeletal stiffness (All Grades): 0 no. (%)
AE leading to dose interruption: Nausea (All Grades): 1 (0.2) no. (%)
AE leading to dose interruption: Neutropenia (All Grades): 2 (0.4) no. (%)
AE leading to dose interruption: New cancer neoplasm (All Grades): 3 (0.6) no. (%)
AE leading to dose interruption: Osteoarthritis (All Grades): 0 no. (%)
AE leading to dose interruption: Osteoporosis (All Grades): 1 (0.2) no. (%)
AE leading to dose interruption: Pain (grouped term) (All Grades): 9 (1.7) no. (%)
AE leading to dose interruption: Pathological fracture (All Grades): 0 no. (%)
AE leading to dose interruption: Peripheral edema (All Grades): 1 (0.2) no. (%)
AE leading to dose interruption: Peripheral swelling (All Grades): 0 no. (%)
AE leading to dose interruption: Proctalgia (All Grades): 1 (0.2) no. (%)
AE leading to dose interruption: Pyrexia (All Grades): 3 (0.6) no. (%)
AE leading to dose interruption: Rash (grouped term) (All Grades): 44 (8.4) no. (%)
AE leading to dose interruption: Renal injury (All Grades): 0 no. (%)
AE leading to dose interruption: Rheumatoid arthritis (All Grades): 1 (0.2) no. (%)
AE leading to dose interruption: Seizure (All Grades): 1 (0.2) no. (%)
AE leading to dose interruption: Spinal cord compression (All Grades): 1 (0.2) no. (%)
AE leading to dose interruption: Stomatitis (All Grades): 1 (0.2) no. (%)
AE leading to dose interruption: Subarachnoid hematoma (All Grades): 1 (0.2) no. (%)
AE leading to dose interruption: Subarachnoid hemorrhage (All Grades): 1 (0.2) no. (%)
AE leading to dose interruption: Subdural hemorrhage (All Grades): 0 no. (%)
AE leading to dose interruption: Syncope (All Grades): 1 (0.2) no. (%)
AE leading to dose interruption: Thrombocytopenia (All Grades): 1 (0.2) no. (%)
AE leading to dose interruption: Tongue ulceration (All Grades): 1 (0.2) no. (%)
AE leading to dose interruption: Urethral stenosis (All Grades): 0 no. (%)
AE leading to dose interruption: Urinary incontinence (All Grades): 1 (0.2) no. (%)
AE leading to dose interruption: Urinary retention (All Grades): 2 (0.4) no. (%)
AE leading to dose interruption: Urinary tract obstruction (All Grades): 1 (0.2) no. (%)
AE leading to dose interruption: Vertigo (All Grades): 1 (0.2) no. (%)
AE leading to dose interruption: Vomiting (All Grades): 3 (0.6) no. (%)
AE leading to dose interruption: Weight increased (All Grades): 0 no. (%)
AE leading to dose reduction: Aspartate aminotransferase or alanine aminotransferase increased (All Grades): 0 no. (%)
AE leading to dose reduction: Asthenia (All Grades): 0 no. (%)
AE leading to dose reduction: Cognitive disorder (All Grades): 1 (0.2) no. (%)
AE leading to dose reduction: Dehydration (All Grades): 1 (0.2) no. (%)
AE leading to dose reduction: Fatigue (All Grades): 2 (0.4) no. (%)
AE leading to dose reduction: General physical health deterioration (All Grades): 1 (0.2) no. (%)
AE leading to dose reduction: Headache (All Grades): 1 (0.2) no. (%)
AE leading to dose reduction: Hot flush (All Grades): 1 (0.2) no. (%)
AE leading to dose reduction: Hypertension (All Grades): 1 (0.2) no. (%)
AE leading to dose reduction: Lethargy (All Grades): 0 no. (%)
AE leading to dose reduction: Neutropenia (All Grades): 2 (0.4) no. (%)
AE leading to dose reduction: Pain (All Grades): 1 (0.2) no. (%)
AE leading to dose reduction: Performance status decreased (All Grades): 0 no. (%)
AE leading to dose reduction: Rash (grouped term) (All Grades): 28 (5.3) no. (%)
AE leading to dose reduction: Vertigo (All Grades): 1 (0.2) no. (%)
AE leading to dose reduction: Weight decreased (All Grades): 1 (0.2) no. (%)
AE of special interest: Fall (All Grades): 39 (7.4) no. (%)
AE of special interest: Fracture (grouped term) (All Grades): 33 (6.3) no. (%)
AE of special interest: Hypothyroidism (grouped term) (All Grades): 34 (6.5) no. (%)
AE of special interest: Rash (grouped term) (All Grades): 142 (27.1) no. (%)
AE of special interest: Seizure (grouped term) (All Grades): 3 (0.6) no. (%)
Patients with treatment-emergent adverse events leading to discontinuation (All Grades): 42 (8.0) no. (%)
Patients with treatment-emergent adverse events leading to dose reduction (All Grades): 37 (7.1) no. (%)
Patients with treatment-emergent events leading to dose interruption (All Grades): 104 (19.8) no. (%)
TEAE: Anemia (All Grades): 48 (9.2) no. (%)
TEAE: Arthralgia (All Grades): 91 (17.4) no. (%)
TEAE: Asthenia (All Grades): 37 (7.1) no. (%)
TEAE: Back pain (All Grades): 91 (17.4) no. (%)
TEAE: Blood alkaline phosphatase increased (All Grades): 16 (3.1) no. (%)
TEAE: Bone pain (All Grades): 34 (6.5) no. (%)
TEAE: Constipation (All Grades): 47 (9.0) no. (%)
TEAE: Fatigue (All Grades): 103 (19.7) no. (%)
TEAE: Hot flush (All Grades): 119 (22.7) no. (%)
TEAE: Hypertension (All Grades): 93 (17.7) no. (%)
TEAE: Pain in extremity (All Grades): 64 (12.2) no. (%)
TEAE: Pruritus (All Grades): 56 (10.7) no. (%)
TEAE: Rash generalized (All Grades): 34 (6.5) no. (%)
TEAE: Urinary retention (All Grades): 13 (2.5) no. (%)
TEAE: Weight increased (All Grades): 54 (10.3) no. (%)
AE leading to discontinuation: Alanine aminotransferase increased (Grade ≥3): 0 no. (%)
AE leading to discontinuation: Anxiety (Grade ≥3): 0 no. (%)
AE leading to discontinuation: Atrial fibrillation (Grade ≥3): 1 (0.2) no. (%)
AE leading to discontinuation: Cardiac failure (Grade ≥3): 0 no. (%)
AE leading to discontinuation: Cardio-respiratory arrest (Grade ≥3): 1 (0.2) no. (%)
AE leading to discontinuation: Cardiogenic shock (Grade ≥3): 1 (0.2) no. (%)
AE leading to discontinuation: Cerebrovascular disorder (Grade ≥3): 1 (0.2) no. (%)
AE leading to discontinuation: Cognitive disorder (Grade ≥3): 0 no. (%)
AE leading to discontinuation: Dehydration (Grade ≥3): 0 no. (%)
AE leading to discontinuation: Dyspnea (Grade ≥3): 0 no. (%)
AE leading to discontinuation: Euphoric mood (Grade ≥3): 0 no. (%)
AE leading to discontinuation: Fatigue (Grade ≥3): 1 (0.2) no. (%)
AE leading to discontinuation: Hot flush (Grade ≥3): 0 no. (%)
AE leading to discontinuation: Hypothermia (Grade ≥3): 0 no. (%)
AE leading to discontinuation: Infections (Grade ≥3): 1 (0.2) no. (%)
AE leading to discontinuation: Intracranial hemorrhage (Grade ≥3): 0 no. (%)
AE leading to discontinuation: Ischemic cardiac events (Grade ≥3): 2 (0.4) no. (%)
AE leading to discontinuation: Large intestinal ulcer perforation (Grade ≥3): 1 (0.2) no. (%)
